Consider 44 compounds from patent publication US20260131009A1, “BIFUNCTIONAL PI3K-ALPHA INHIBITORS AND USES THEREOF” (Relay Therapeutics, Inc., priority 2021, published 2026).

Usually IC50 stands for the concentration at which inhibition is half-maximal.

The assay has as its target PI3Kα (Homo sapiens, UniProt P42336, H1047R). Kind of assay: ADP-Glo IC50 assay. The assay is classed as biochemical. As to conditions: class symbols; key not given. Background: ADP-Glo first removes unused ATP, then detects ADP through luciferase.

Chain of PI3Kα (P42336 whole entry H1047R): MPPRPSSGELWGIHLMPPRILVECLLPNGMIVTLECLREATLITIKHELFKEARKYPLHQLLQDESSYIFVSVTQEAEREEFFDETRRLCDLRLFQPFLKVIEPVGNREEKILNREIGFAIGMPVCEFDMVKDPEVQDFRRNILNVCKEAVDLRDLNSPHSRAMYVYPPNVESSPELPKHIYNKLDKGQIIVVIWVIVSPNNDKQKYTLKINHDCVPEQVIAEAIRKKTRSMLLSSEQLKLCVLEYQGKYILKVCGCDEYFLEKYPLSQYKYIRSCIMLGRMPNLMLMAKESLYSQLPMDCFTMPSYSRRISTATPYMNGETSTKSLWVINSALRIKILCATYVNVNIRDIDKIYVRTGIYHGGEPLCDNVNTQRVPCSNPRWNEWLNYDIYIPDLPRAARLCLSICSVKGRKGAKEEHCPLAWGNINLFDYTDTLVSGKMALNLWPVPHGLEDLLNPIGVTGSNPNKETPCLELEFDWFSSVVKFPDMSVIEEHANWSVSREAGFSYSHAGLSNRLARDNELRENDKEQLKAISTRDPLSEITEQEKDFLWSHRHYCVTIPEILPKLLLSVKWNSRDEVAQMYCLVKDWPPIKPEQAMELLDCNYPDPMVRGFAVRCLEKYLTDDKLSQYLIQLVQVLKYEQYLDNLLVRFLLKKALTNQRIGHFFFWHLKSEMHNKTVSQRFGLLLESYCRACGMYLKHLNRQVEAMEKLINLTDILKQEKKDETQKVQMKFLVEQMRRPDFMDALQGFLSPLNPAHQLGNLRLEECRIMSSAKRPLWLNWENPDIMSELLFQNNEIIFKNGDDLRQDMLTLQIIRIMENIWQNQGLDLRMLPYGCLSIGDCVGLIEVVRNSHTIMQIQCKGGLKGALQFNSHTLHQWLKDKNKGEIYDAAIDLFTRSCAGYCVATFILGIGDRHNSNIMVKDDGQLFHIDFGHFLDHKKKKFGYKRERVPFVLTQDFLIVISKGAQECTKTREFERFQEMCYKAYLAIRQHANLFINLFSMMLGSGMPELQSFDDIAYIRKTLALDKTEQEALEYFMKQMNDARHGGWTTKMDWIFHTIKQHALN
Chain of PI3Kα (P27986 whole entry partner): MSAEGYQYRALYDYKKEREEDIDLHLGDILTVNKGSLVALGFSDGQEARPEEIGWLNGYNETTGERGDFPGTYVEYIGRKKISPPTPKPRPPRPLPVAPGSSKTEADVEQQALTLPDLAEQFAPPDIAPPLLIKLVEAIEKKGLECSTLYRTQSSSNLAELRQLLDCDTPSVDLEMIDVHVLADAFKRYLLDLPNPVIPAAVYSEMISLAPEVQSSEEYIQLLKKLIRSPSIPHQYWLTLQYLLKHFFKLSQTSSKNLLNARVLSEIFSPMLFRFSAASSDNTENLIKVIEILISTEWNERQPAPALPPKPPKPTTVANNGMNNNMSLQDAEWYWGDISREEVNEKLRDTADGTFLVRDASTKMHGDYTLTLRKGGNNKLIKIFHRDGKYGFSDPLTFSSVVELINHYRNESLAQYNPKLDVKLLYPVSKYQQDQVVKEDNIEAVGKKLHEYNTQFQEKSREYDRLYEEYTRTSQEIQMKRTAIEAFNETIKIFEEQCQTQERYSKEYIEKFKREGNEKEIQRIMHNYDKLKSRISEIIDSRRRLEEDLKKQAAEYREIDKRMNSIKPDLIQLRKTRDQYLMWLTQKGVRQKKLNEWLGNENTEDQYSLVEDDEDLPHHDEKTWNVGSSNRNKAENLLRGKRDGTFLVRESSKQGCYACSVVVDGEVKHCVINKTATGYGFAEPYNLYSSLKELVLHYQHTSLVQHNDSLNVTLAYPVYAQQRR

Compound `O=C1CCC(N2Cc3cc(C(=O)NCCCCCCCCCCNC(=O)c4cc(NC(=O)c5cccc(C(F)(F)F)c5)c5c(c4)C(=O)N[C@H]5c4cc(F)ccc4Cl)ccc3C2=O)C(=O)N1` (some centres unmarked) [Example I-152] gave a half-maximal inhibitory concentration (IC50) of 100 to 500 nM. Compound `O=C1CCC(N2Cc3cc(C#CCNC(=O)c4cc(NC(=O)c5cc(F)cc(C(F)(F)F)c5)c5c(c4)C(=O)N[C@H]5c4cc(F)ccc4Cl)ccc3C2=O)C(=O)N1` (some centres unmarked) [Example I-110] displayed an IC50 below 100 nM. The value for `O=C(O)CCCCCCCCCNC(=O)c1cc(NC(=O)c2cc(F)cc(C(F)(F)F)c2)c2c(c1)C(=O)N[C@H]2c1cc(F)ccc1Cl` [Example I-86] was 1000 to 10000 nM; that for `Cc1ccccc1Nc1ncc(C(=O)NCCOCCOCCC(=O)N[C@H](C(=O)N2C[C@H](O)C[C@H]2C(=O)N[C@@H](C)c2ccc(-c3scnc3C)cc2)C(C)(C)C)cc1NC(=O)c1csc2ccccc12` [Example I-40] was 1000 to 10000 nM; that for `Cc1cc([C@H](C)Nc2ccccc2C(=O)O)c2oc(N3CCN(C(=O)CCOCCOCCNC(=O)c4cnc(Nc5ccccc5C)c(NC(=O)c5csc6ccccc56)c4)CC3)cc(=O)c2c1` [Example I-126] was 100 to 500 nM. As to `Cc1cc([C@H](C)Nc2ccccc2C(=O)O)c2oc(N3CCN(C(=O)CCCCCNc4cccc5c4C(=O)N(C4CCC(=O)NC4=O)C5=O)CC3)cc(=O)c2c1` (some centres unmarked) [Example I-137], the half-maximal inhibitory concentration (IC50) lay in the range of 1000 to 10000 nM. The value for `Cc1cc([C@H](C)Nc2ccccc2C(=O)O)c2oc(N3CCN(C(=O)CCCNc4cccc5c4C(=O)N(C4CCC(=O)NC4=O)C5=O)CC3)cc(=O)c2c1` (some centres unmarked) [Example I-133] was 1000 to 10000 nM; that for `Cc1cc([C@@H](C)Nc2ccccc2C(=O)O)c2oc(N3CCN(C(=O)CCC(=O)NCc4ccc5c(c4)C(=O)N(C4CCC(=O)NC4=O)C5)CC3)cc(=O)c2c1` (some centres unmarked) [Example I-149] was 1000 to 10000 nM. Take `Cc1ncsc1-c1ccc([C@H](C)NC(=O)[C@@H]2C[C@@H](O)CN2C(=O)[C@@H](NC(=O)CCCCCCCCCNC(=O)c2cc(NC(=O)c3cc(F)cc(C(F)(F)F)c3)c3c(c2)C(=O)N[C@H]3c2cc(F)ccc2Cl)C(C)(C)C)cc1` [Example I-88]: the IC50 fell in the range of 500 to 1000 nM. For the compound `O=C1CCC(N2C(=O)c3ccc(NCCCCNC(=O)c4cc(NC(=O)c5cc(F)cc(C(F)(F)F)c5)c5c(c4)C(=O)N[C@@H]5c4cc(F)ccc4Cl)cc3C2=O)C(=O)N1` (some centres unmarked) [Example I-94], the IC50 was 500 to 1000 nM. The value for `Cc1ccccc1Nc1ncc(C(=O)NCCCC#Cc2ccc3c(c2)CN(C2CCC(=O)NC2=O)C3=O)cc1NC(=O)c1csc2ccccc12` (centres unmarked) [Example I-44] was 100 to 500 nM; that for `Cc1cc([C@H](C)Nc2ccccc2C(=O)O)c2oc(N3CCN(C(=O)CCCCCCNc4ccc5c(c4)C(=O)N(C4CCC(=O)NC4=O)C5=O)CC3)cc(=O)c2c1` (some centres unmarked) [Example I-129] was 1000 to 10000 nM; that for `Cc1cc([C@@H](C)Nc2ccccc2C(=O)O)c2oc(N3CCN(C(=O)CCCCCCCNc4cccc5c4C(=O)N(C4CCC(=O)NC4=O)C5=O)CC3)cc(=O)c2c1` (some centres unmarked) [Example I-143] was 1000 to 10000 nM.

Turning to `Cc1cc([C@@H](C)Nc2ccccc2C(=O)O)c2oc(N3CCN(C(=O)CCCCCNc4ccc5c(c4)C(=O)N(C4CCC(=O)NC4=O)C5=O)CC3)cc(=O)c2c1` (some centres unmarked) [Example I-132], the IC50 fell in the range of 500 to 1000 nM. Regarding `Cc1ccccc1Nc1ncc(C(=O)NCCOCCOCCOCCOCCOCCOCCC(=O)NCc2ccc3c(c2)CN(C2CCC(=O)NC2=O)C3=O)cc1NC(=O)c1csc2ccccc12` (centres unmarked) [Example I-52], the IC50 lay within 10000 to 100000 nM. In turn, `O=C1CCC(N2Cc3cc(C(=O)NCCCCCCCNC(=O)c4cc(NC(=O)c5cc(F)cc(C(F)(F)F)c5)c5c(c4)C(=O)N[C@H]5c4cc(F)ccc4Cl)ccc3C2=O)C(=O)N1` (some centres unmarked) [Example I-77] displayed an IC50 below 100 nM. `NC(=O)CCCCCCCCCNC(=O)c1cc(NC(=O)c2cc(F)cc(C(F)(F)F)c2)c2c(c1)C(=O)N[C@H]2c1cc(F)ccc1Cl` [Example I-79] displayed an IC50 of 1000 to 10000 nM. The value for `Cc1ccccc1Nc1ncc(C(=O)N[C@H](CCC(=O)N[C@H](C(=O)N2C[C@H](O)C[C@H]2C(=O)NCc2ccc(-c3scnc3C)cc2)C(C)(C)C)C(O)O)cc1NC(=O)c1csc2ccccc12` [Example I-109] was 1000 to 10000 nM; that for `Cc1ccccc1Nc1ncc(C(=O)NCCCCCCC(=O)N[C@H](C(=O)N2C[C@H](O)C[C@H]2C(=O)NCc2ccc(-c3scnc3C)cc2)C(C)(C)C)cc1NC(=O)c1csc2ccccc12` [Example I-15] was 100 to 500 nM.

Compound `Cc1ccccc1Nc1ncc(C(=O)NCCCCCCC(=O)N[C@H](C(=O)N2C[C@H](O)C[C@H]2C(=O)N[C@@H](C)c2ccc(-c3scnc3C)cc2)C(C)(C)C)cc1NC(=O)c1csc2ccccc12` [Example I-23] gave an IC50 of 100 to 500 nM. `Cc1ccccc1Nc1ncc(C(=O)NCCCCCCCCNC(=O)c2ccc3c(c2)CN(C2CCC(=O)NC2=O)C3=O)cc1NC(=O)c1csc2ccccc12` (centres unmarked) [Example I-21] gave a 50% inhibitory concentration (IC50) of 100 to 500 nM.

Take `O=C1CCC(N2Cc3cc(C#CCNC(=O)c4cnc(Nc5cc(F)ccc5Cl)c(NC(=O)c5csc6ccccc56)c4)ccc3C2=O)C(=O)N1` (centres unmarked) [Example I-95]: the concentration for half-maximal inhibition (IC50) was below 100 nM. `Cc1ccccc1Nc1ncc(C(=O)NCCCC(=O)N[C@H](C(=O)N2C[C@H](O)C[C@H]2C(=O)N[C@@H](C)c2ccc(-c3scnc3C)cc2)C(C)(C)C)cc1NC(=O)c1csc2ccccc12` [Example I-57] gave an IC50 of 500 to 1000 nM.

In turn, `Cc1ccccc1Nc1ncc(C(=O)NCCCCNc2cccc3c2C(=O)N(C2CCC(=O)NC2=O)C3=O)cc1NC(=O)c1csc2ccccc12` (centres unmarked) [Example I-49] displayed an IC50 of 100 to 500 nM. `Cc1ccccc1Nc1ncc(C(=O)NCCOCCOCCOCCC(=O)N[C@H](C(=O)N2C[C@H](O)C[C@H]2C(=O)NCc2ccc(-c3scnc3C)cc2)C(C)(C)C)cc1NC(=O)c1csc2ccccc12` [Example I-35] returned a half-maximal inhibitory concentration (IC50) of 1000 to 10000 nM. `Cc1ncsc1-c1ccc(CNC(=O)[C@@H]2C[C@@H](O)CN2C(=O)[C@@H](NC(=O)CCCCCCCCCNC(=O)c2cc(NC(=O)c3cc(F)cc(C(F)(F)F)c3)c3c(c2)C(=O)N[C@@H]3c2cc(F)ccc2Cl)C(C)(C)C)cc1` [Example I-73] had a 50% inhibitory concentration (IC50) below 100 nM. `O=C1CCC(N2Cc3cc(C(=O)NCCCCCCCCCNC(=O)c4cc(NC(=O)c5cccc(F)c5)c5c(c4)C(=O)N[C@H]5c4cc(F)ccc4Cl)ccc3C2=O)C(=O)N1` (some centres unmarked) [Example I-160] displayed a half-maximal inhibitory concentration (IC50) of 100 to 500 nM.

Consider `O=C1CCC(N2Cc3cc(C#CCN4CCC(NC(=O)c5cnc(Nc6cc(F)ccc6Cl)c(NC(=O)c6csc7ccccc67)c5)CC4)ccc3C2=O)C(=O)N1` (centres unmarked) [Example I-84], for which the IC50 was 1000 to 10000 nM. `Cc1ncsc1-c1ccc(CNC(=O)[C@@H]2C[C@@H](O)CN2C(=O)[C@@H](NC(=O)CCCCCCCCCNC(=O)c2cnc(Nc3cc(F)ccc3Cl)c(NC(=O)c3csc4ccccc34)c2)C(C)(C)C)cc1` [Example I-45] yielded an IC50 of 100 to 500 nM. Take `O=C1CCC(N2Cc3cc(C(=O)NCCCCCCCCCNC(=O)c4cnc(Nc5cc(F)ccc5Cl)c(NC(=O)c5csc6ccccc56)c4)ccc3C2=O)C(=O)N1` (centres unmarked) [Example I-34]: the IC50 fell in the range of 500 to 1000 nM. For `Cc1cc(Br)c2oc(N3CCN(C(=O)CCCCCCNC(=O)c4cnc(Nc5ccccc5C)c(NC(=O)c5csc6ccccc56)c4)CC3)cc(=O)c2c1` [Example I-108], the concentration for half-maximal inhibition (IC50) was in the range of 100 to 500 nM. Regarding `Cc1ccccc1Nc1ncc(C(=O)NCCCCC(=O)N[C@H](C(=O)N2C[C@H](O)C[C@H]2C(=O)NCc2ccc(-c3scnc3C)cc2)C(C)(C)C)cc1NC(=O)c1csc2ccccc12` [Example I-43], the half-maximal inhibitory concentration (IC50) lay within 500 to 1000 nM. On to `Cc1ccccc1Nc1ncc(C(=O)NCCCCC(=O)N[C@H](C(=O)N2C[C@H](O)C[C@H]2C(=O)N[C@@H](C)c2ccc(-c3scnc3C)cc2)C(C)(C)C)cc1NC(=O)c1csc2ccccc12` [Example I-65], for which the half-inhibitory concentration (IC50) lay in the range of 500 to 1000 nM.

The compound `O=C1CCC(N2C(=O)c3ccc(NCCCCCCCNC(=O)c4cnc(Nc5cc(F)ccc5Cl)c(NC(=O)c5csc6ccccc56)c4)cc3C2=O)C(=O)N1` (centres unmarked) [Example I-69] yielded an IC50 of 100 to 500 nM. Consider `Cc1ccccc1Nc1ncc(C(=O)NCCOCCOCCOCCOCCC(=O)N[C@H](C(=O)N2C[C@H](O)C[C@H]2C(=O)NCc2ccc(-c3scnc3C)cc2)C(C)(C)C)cc1NC(=O)c1csc2ccccc12` [Example I-14], for which the IC50 lay in the range of 500 to 1000 nM. `O=C1CCC(N2Cc3cc(C(=O)NCCCCCCCCNC(=O)c4cc(NC(=O)c5cccc(C(F)(F)F)c5)c5c(c4)C(=O)N[C@@H]5c4cc(F)ccc4Cl)ccc3C2=O)C(=O)N1` (some centres unmarked) [Example I-150] displayed an IC50 of 1000 to 10000 nM.

`O=C1CCC(N2Cc3cc(C(=O)NCCCCCCCNC(=O)c4cnc(Nc5cc(F)ccc5Cl)c(NC(=O)c5csc6ccccc56)c4)ccc3C2=O)C(=O)N1` (centres unmarked) [Example I-66]: the half-inhibitory concentration (IC50) is 100 to 500 nM.

The compound `O=C1CCC(N2C(=O)c3ccc(NCCCCCCCNC(=O)c4cc(NC(=O)c5cc(F)cc(C(F)(F)F)c5)c5c(c4)C(=O)N[C@H]5c4cc(F)ccc4Cl)cc3C2=O)C(=O)N1` (some centres unmarked) [Example I-90] came in with an IC50 below 100 nM.

For the compound `Cc1ccccc1Nc1ncc(C(=O)Nc2ccc(N3CCN(c4ccc5c(c4)C(=O)N(C4CCC(=O)NC4=O)C5=O)CC3)cc2)cc1NC(=O)c1csc2ccccc12` (centres unmarked) [Example I-55], the IC50 fell in the range of 100 to 500 nM.

For `Cc1cc([C@H](C)Nc2ccccc2C(=O)O)c2oc(N3CCN(C(=O)CCCCCNc4ccc5c(c4)C(=O)N(C4CCC(=O)NC4=O)C5=O)CC3)cc(=O)c2c1` (some centres unmarked) [Example I-128], the half-inhibitory concentration (IC50) fell in the range of 1000 to 10000 nM. With `Cc1cc([C@@H](C)Nc2ccccc2C(=O)O)c2oc(N3CCN(C(=O)CCOCCNc4cccc5c4C(=O)N(C4CCC(=O)NC4=O)C5=O)CC3)cc(=O)c2c1` (some centres unmarked) [Example I-145], the IC50 lay within 1000 to 10000 nM.

The compound `Cc1ccccc1Nc1ncc(C(=O)NCCOCCOCCC(=O)N[C@H](C(=O)N2C[C@H](O)C[C@H]2C(=O)NCc2ccc(-c3scnc3C)cc2)C(C)(C)C)cc1NC(=O)c1csc2ccccc12` [Example I-37] gave a half-inhibitory concentration (IC50) of 1000 to 10000 nM. `Cc1cc([C@@H](C)Nc2ccccc2C(=O)O)c2oc(N3CCN(C(=O)CCNc4ccc5c(c4)C(=O)N(C4CCC(=O)NC4=O)C5=O)CC3)cc(=O)c2c1` (some centres unmarked) [Example I-140] yielded an IC50 of 500 to 1000 nM.

For the compound `O=C(CCCCCCCNC(=O)c1cc(NC(=O)c2cc(F)cc(C(F)(F)F)c2)c2c(c1)C(=O)N[C@H]2c1cc(F)ccc1Cl)NCc1ccc2c(c1)CN(C1CCC(=O)NC1=O)C2=O` (some centres unmarked) [Example I-93], the IC50 was below 100 nM.
